US20250250265A1, “BENZOTHIAZOLE-PHENYLSULFONYL-PIPERIDINE ANALOGS AS ACTIVATORS OF NACYLPHOSPHATIDYLETHANOLAMINE HYDROLYZING PHOSPHOLIPASE D” (priority 2022, published 2025)
“Also recorded” adds a separate entry of the source.

Key:
[1] = system: bone marrow-derived macrophages (BMDM); assay: Efferocytosis assay with bone marrow-derived macrophages and apoptotic Jurkat cells; format: cell-based, mouse; settings: 10 μM; for effect on efferocytosis by wild-type BMDM: 6 h before assay
Procedure: Male C57BL6/j wild-type or Napepld^−/− mice were euthanized with isoflurane and hind legs were removed. Marrow was flushed from femurs and tibias using DMEM containing 4.5 g/L glucose and a 26-gauge needle. Cell suspensions were passed over a 40-μm filter, centrifuged at 500×g, and resuspended in 50 ml of DMEM containing 4.5 g/L glucose, 20% L-cell conditioned media, 10% heat-inactivated FBS, and 1% penicillin/streptomycin. 10 ml of cell suspension was plated into each of five 100-mm dishes and incubated for four days at 37° C. and 5% CO2. On day four, non-adherent cells and debris were aspirated from the plates and replaced with fresh media. After 7 days of differentiation, cells were harvested for use in experiments.
Assays were performed according to previously described protocols. See e.g., Doran et al. J. Clin. Invest. 127(11): 4075-4089 (2017); Proto et al., Immunity 49(4): 666-677 (2018). Bone marrow-derived macrophages were seeded at 0.25×10^6 cells/well in a non-tissue culture-treated 24-well plate and allowed to adhere overnight. Macrophages were treated with various compounds at a final concentration of 10 μM or DMSO as a vehicle for 6 hours prior to each experiment. Jurkat cells were exposed to UV light (254 nm) for 5 minutes to induce apoptosis and then incubated in a 37° C. incubator with 5% CO2 for 2 hours. Surveillance staining of these cells routinely yielded approximately 80-90% apoptosis (Annexin V+) using this method. Apoptotic Jurkat cells were labeled with either CellVue Claret (Millipore Sigma) or Cell Trace Violet (Invitrogen) per the manufacturer's instructions. After staining, cells were resuspended in macrophage medium at a density of […] and 500 μL of this suspension was added to the drug-containing media on the macrophages to achieve a cell ratio of 3:1 Jurkats: macrophages. After incubating for 45 minutes at 37° C. and 5% CO2, the medium was aspirated, and the macrophages were gently washed twice with PBS to remove unbound apoptotic cells. Macrophages were then removed from the plate using Cell Stripper (Sigma), washed, resuspended in staining buffer consisting of 2% FBS in PBS with 2 mM EDTA, and blocked with anti-mouse CD16/32 antibodies for 15 minutes on ice. After blocking, cells were pelleted and resuspended with F4/80. Cells were incubated for 45 minutes on ice in the dark, then washed and resuspended in staining buffer for analysis. Cells were analyzed using an Attune NxT cytometer (Thermo Fisher) and data were analyzed using FlowJo software to quantify the proportion of F4/80^+ macrophages that co-stained for apoptotic cells (% efferocytosis).

[2] = target: T1, recombinant mouse NAPE-PLD (Mus musculus, UniProt Q8BH82); assay: In vitro competition assay (LEI-401, VU233, VU534) on recombinant mouse Nape-pld; format: biochemical
T1 construct: hexahistidine (His6) (C); made in house; host or cells: E. coli
T1 sequence (Q8BH82 1-396): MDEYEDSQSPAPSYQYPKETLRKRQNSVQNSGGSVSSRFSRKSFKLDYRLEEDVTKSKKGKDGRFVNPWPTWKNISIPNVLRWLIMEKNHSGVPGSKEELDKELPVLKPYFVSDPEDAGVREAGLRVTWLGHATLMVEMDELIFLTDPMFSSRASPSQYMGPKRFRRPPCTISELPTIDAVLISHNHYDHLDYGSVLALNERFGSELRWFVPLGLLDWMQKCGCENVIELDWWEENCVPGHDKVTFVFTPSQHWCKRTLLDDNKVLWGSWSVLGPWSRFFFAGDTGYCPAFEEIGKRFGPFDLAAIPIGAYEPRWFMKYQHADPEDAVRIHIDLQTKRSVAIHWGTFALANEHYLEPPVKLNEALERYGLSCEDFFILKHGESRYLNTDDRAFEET
Procedure: A similar in vitro fluorescence Nape-pld activity assay was used for LEI-401 and VU233 competition assays except that this assay was performed using black-walled clear-bottom 96-well plates with 3.5 μM PED-A1 and no N-palmitoyl-dioleoyl-PE used as substrate and read in a BioTek Synergy H1 plate reader with the slope of the fluorescence signal from 0-4 min (linear phase) used as the assay readout. LEI-401, VU233, and VU534 were incubated for 1 h prior to addition of PED-A1. The Michaelis-Menten study used this same assay except with graded concentration of flame-NAPE.

[3] = target: T1, recombinant mouse NAPE-PLD; assay: LC/MS NAPE-PLD assay with N-oleoyl-phosphatidylethanolamine (NOPE) as substrate; format: biochemical; settings: NOPE 90 min (FIG. 19A)
Procedure: For LC/MS assays, N-oleoyl-PE was added as substrate after […] pre-incubation with compound VU534, VU533, VU233 or vehicle. 90 min after N-oleoyl-PE was added, the reaction was quenched by adding 3 volumes of ice-cold methanol containing [^2H4]OEA and [^2H4]N-palmitoyl-PE and then 6 volumes of ice-cold chloroform.33 The lower phase was dried under nitrogen gas and dissolved in 100 μL mobile phase A. High performance liquid chromatography was performed using a 2.1 mm C18 guard column (Phenomenex AJ0-8782), and a rapid gradient ramp. Mobile phase A was 5:1:4 (v/v/v) isopropanol: methanol: water, with 0.2% v/v formic acid, 0.66 mM ammonium formate and 3 μM phosphoric acid included as additives. Mobile phase B was 0.2% (v/v) formic acid in isopropanol. Initial column conditions were 5% mobile phase B, followed by gradient ramp to 95% B over 0.5 min, held at 95% B for 2 min, the returned to initial conditions (5% B) over 1 min. Flow rate throughout was 100 μL/min. Injection volume was 2 μL. The sample injector needle was washed before each injection using a strong wash of methanol, and a weak wash of 1:1:1:1 (v/v/v/V) isopropanol: methanol: acetonitrile: water, with 0.2% formic acid, 0.3 mM ammonium formate, and 0.37 mM phosphoric acid included as additives. Multiple reaction monitoring for the following ions were monitored: OEA [M+H]^+: m/z 326.3→m/z 62.1; [^2H4]OEA [M+H]^+: m/z 330.3→m/z 66.1; N-oleoyl-PE [M+NH4]^+: m/z 693.5→m/z 308.3 (quantifier), m/z 693.5→m/z 271.2 (qualifier); [^2H4]N-palmitoyl-PE [M+NH4]^+: m/z 1003.8→m/z 286.3 (quantifier), m/z 1003.8→m/z 603.5 (qualifier). […]
To confirm the results of the fluorescence-based assays, an orthogonal biochemical Nape-pld assay based on LC/MS was employed. Recombinant mouse NAPE-PLD was pre-treated with VU534, VU533, VU233 or vehicle for 30 min, then N-oleoyl-phosphatidylethanolamine (NOPE) was added for 90 min, and the resulting levels of OEA and NOPE was measured by LC/MS. […]

| Compound | effect on efferocytosis by wild-type BMDM [1] | effect on enzyme activation by 5 μM VU534 ([2]; graded concentrations with 5 μM VU534 (FIG. 19C)) | effect on OEA/NOPE ratio [3] | effect on efferocytosis by Napepld−/− (KO) BMDM ([1]; 6 h, KO BMDM (FIG. 21C)) | effect on efferocytosis by WT BMDM in WT versus KO experiment ([1]; 6 h, WT BMDM (FIG. 21C)) | increase of Nape-pld activity ([2]; 5 μM, in the absence of LEI-401) [fold] |
| --- | --- | --- | --- | --- | --- | --- |
| O=C(Nc1nc2ccccc2s1)C1CCN(S(=O)(=O)c2ccc(F)c(Cl)c2)CC1 [VU233] | modestly reduced efferocytosis | suppress the enzyme activation of 5 μM VU534 in a concentration-dependent manner | no significant effect |  |  |  |
| Cc1ccc(C)c2sc(NC(=O)C3CCN(S(=O)(=O)c4ccc(F)cc4)CC3)nc12 [VU533] | significantly enhanced efferocytosis |  | significantly increased the OEA/NOPE ratio |  |  |  |
| Cc1cc(C)c2sc(NC(=O)C3CCN(S(=O)(=O)c4ccc(F)cc4)CC3)nc2c1 [VU534, N-(5,7-Dimethylbenzo[d]thiazol-2-yl)-1-((4-fluorophenyl)sulfonyl)piperidine-4-carboxamide] | increases efferocytosis capacity; also recorded: significantly enhanced efferocytosis |  | significantly increased the OEA/NOPE ratio | had no effect | significantly increased efferocytosis | 1.5 |
